Source: patent US12344610B2, “APOL1 inhibitors and methods of use” (Maze Therapeutics, Inc., priority 2022, dated 2025)
pEC50: −log10 of the molar value.

Tests used:
APOL1 G2 = biological target: T1, APOL1 G2 (Homo sapiens, UniProt O14791, DEL388-389); experiment: APOL1-mediated calcium transport (calcium influx) assay, HEK T-REx/GCaMP6f/APOL1 G2 K6.3 cells, FLIPR TETRA; format: cell-based; settings: prevention of calcium influx; geometric mean of at least 2 assay runs; † = average of a technical replicate from a single assay run
T1 construct: expressed in transfected cells; host or cells: HEK293 T-REx clonal line stably expressing GCaMP6f (HEK T-REx/GCaMP6f/APOL1 G2 K6.3), doxycycline induced
T1 sequence (O14791 with tags, fused parts or gaps DEL388-389): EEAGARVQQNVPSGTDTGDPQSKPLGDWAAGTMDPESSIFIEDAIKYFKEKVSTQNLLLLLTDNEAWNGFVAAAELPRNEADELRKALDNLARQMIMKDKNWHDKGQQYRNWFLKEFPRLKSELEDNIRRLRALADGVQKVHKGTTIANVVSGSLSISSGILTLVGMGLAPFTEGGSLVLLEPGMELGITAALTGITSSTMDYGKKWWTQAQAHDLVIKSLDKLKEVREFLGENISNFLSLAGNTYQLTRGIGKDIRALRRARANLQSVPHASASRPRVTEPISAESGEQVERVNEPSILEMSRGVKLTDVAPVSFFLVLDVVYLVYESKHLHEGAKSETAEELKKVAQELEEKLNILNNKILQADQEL
Outline: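 A HEK293 T-REx clone stably expressing GCaMP6f had APOL1 G2 induced with doxycycline (20 ng/mL solution added) for 6 h. Cells were then washed into Ca2+-free Tyrode's buffer (pH 7.4) and preincubated with compounds (duplicate 8-point) for 10 min at room temperature. Ca2+ injection to 5 mM final produced FLIPR GCaMP fluorescence, giving AC50 for influx inhibition (geometric mean, ≥2 runs).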

[1] = tested on: HEK293 clonal cell line overexpressing APOL1 G1; experiment: APOL1 G1 HEK293 cell rescue assay (Example B3); format: cell-based; settings: geometric mean of at least 2 runs, † = single run, ¥ = concentration at 50% rescue estimated (no sigmoidal curve)
Outline: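 Rescue of cell death caused by APOL1 G1 overexpression was measured in a clonal HEK293 line. Compounds were tested in duplicate on one plate, and EC50s were geometric means across at least two runs on different days. Some values are estimated 50%-rescue concentrations where curve fitting failed.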

[2] = Homo sapiens, HEK293, HEK293 clonal line overexpressing APOL1 G1

Structure (SMILES): O=C1Nc2ccccc2C12CCN(CCOc1ccc(S(=O)(=O)C(F)F)cc1)CC2 [Compound 44, 1′-[2-(4-difluoromethanesulfonylphenoxy)ethyl]-1,2-dihydrospiro[indole-3,4′-piperidin]-2-one]
- AC50 (APOL1 G2): 352 nM
- pEC50 [1, 2]: 6.32

Structure (SMILES): CC(c1ccc(OCCN2CCC3(CC2)C(=O)Nc2ccc(Cl)cc23)cc1)S(C)(=O)=O (single isomer, unassigned) [Compound 39, 5-chloro-1′-(2-{4-[(1S) or (1R)-1-methanesulfonylethyl]phenoxy}ethyl)-1,2-dihydrospiro[indole-3,4′-piperidin]-2-one]
- AC50 (APOL1 G2): 745 nM
- pEC50 [1, 2]: < 6.61

Structure (SMILES): CS(=O)(=O)c1ccc(OCCN2CCC3(CC2)C(=O)Nc2ccc(C#N)cc23)cc1 [Compound 71, 1′-[2-(4-methanesulfonylphenoxy)ethyl]-2-oxo-1,2-dihydrospiro[indole-3,4′-piperidine]-5-carbonitrile]
- AC50 (APOL1 G2): 626 nM
- pEC50 [1, 2]: 5.87

Structure (SMILES): C[C@]1(O)C[C@@H](n2ccc3cc(OCCN4CCC5(CC4)C(=O)Nc4ccc(Cl)cc45)cnc32)C1 [Compound 349, 5-chloro-1′-[2-({1-[(cis)-3-hydroxy-3-methylcyclobutyl]-1H-pyrrolo[2,3-b]pyridin-5-yl}oxy)ethyl]-1,2-dihydrospiro[indole-3,4′-piperidin]-2-one]
- AC50 (APOL1 G2): 199 nM
- pEC50 [1, 2]: 7.13

Structure (SMILES): Cc1nc2cc(OCCN3CCC4(CC3)C(=O)Nc3ccc(C#N)cc34)cc(C(F)(F)F)c2n1[C@H]1C[C@@](C)(O)C1 [Compound 443, 1′-[2-({2-methyl-1-[(cis)-3-hydroxy-3-methylcyclobutyl]-7-(trifluoromethyl)-1H-1,3-benzodiazol-5-yl}oxy)ethyl]-2-oxo-1,2-dihydrospiro[indole-3,4′-piperidine]-5-carbonitrile]
- AC50 (APOL1 G2): 2670 nM
- pEC50 [1, 2]: 7.51

Structure (SMILES): C[C@]1(O)C[C@@H](n2nnc3cc(OCCN4CCC5(CC4)C(=O)Nc4ccc(Cl)cc45)cc(C(F)(F)F)c32)C1 [Compound 434, 5-chloro-1′-[2-({1-[(cis)-3-hydroxy-3-methylcyclobutyl]-7-(trifluoromethyl)-1H-1,2,3-benzotriazol-5-yl}oxy)ethyl]-1,2-dihydrospiro[indole-3,4′-piperidin]-2-one]
- AC50 (APOL1 G2): 1270 nM
- pEC50 [1, 2]: 7.83

Structure (SMILES): [2H]C([2H])(Oc1cnc2c(c1)CCC(=O)N2[C@H]1C[C@@](C)(O)C1)C([2H])([2H])N1CCC2(CC1)C(=O)Nc1ccc(Cl)cc12 [Compound 426, 5-chloro-1′-[2-({7-oxo-8-[(cis)-3-hydroxy-3-methylcyclobutyl]-5,6,7,8-tetrahydro-1,8-naphthyridin-3-yl}oxy)(1,1,2,2-^2H4)ethyl]-1,2-dihydrospiro[indole-3,4′-piperidin]-2-one]
- AC50 (APOL1 G2): 597 nM
- pEC50 [1, 2]: 7.10

Structure (SMILES): CNC(=O)N1CCCc2cc(OCCN3CCC4(CC3)C(=O)Nc3ccc(Cl)cc34)ccc21 [Compound 60, 6-(2-{5-chloro-2-oxo-1,2-dihydrospiro[indole-3,4′-piperidin]-1′-yl}ethoxy)-N-methyl-1,2,3,4-tetrahydroquinoline-1-carboxamide]
- AC50 (APOL1 G2): 652 nM
- pEC50 [1, 2]: 6.74

Structure (SMILES): CC(C)[C@]1(O)C[C@@H](N2C(=O)CCc3cc(OCCN4CCC5(CC4)C(=O)Nc4ccc(Cl)cc45)cnc32)C1 [Compound 317, 5-chloro-1′-[2-({7-oxo-8-[(cis)-3-hydroxy-3-(propan-2-yl)cyclobutyl]-5,6,7,8-tetrahydro-1,8-naphthyridin-3-yl}oxy)ethyl]-1,2-dihydrospiro[indole-3,4′-piperidin]-2-one]
- AC50 (APOL1 G2): 792 nM
- pEC50 [1, 2]: 7.34

Structure (SMILES): CC1(O)CC(c2ncc(OCCN3CCC4(CC3)C(=O)Nc3ccc(Cl)cc34)cn2)C1 (single isomer, unassigned) [Compound 393, 5-chloro-1′-[2-({2-[(cis) or (trans)-3-hydroxy-3-methylcyclobutyl]pyrimidin-5-yl}oxy)ethyl]-1,2-dihydrospiro[indole-3,4′-piperidin]-2-one]
- AC50 (APOL1 G2): 1060 nM
- pEC50 ([1]; HEK293 clonal line overexpressing APOL1 G1): 6.80

Structure (SMILES): CC1(O)CC2(CN(c3ncc(OCCN4CCC5(CC4)C(=O)Nc4ccc(Cl)cc45)cn3)C2)C1 [Compound 459, 5-chloro-1′-{2-[(2-{6-hydroxy-6-methyl-2-azaspiro[3.3]heptan-2-yl}pyrimidin-5-yl)oxy]ethyl}-1,2-dihydrospiro[indole-3,4′-piperidin]-2-one]
- AC50 (APOL1 G2): 370 nM
- pEC50 [1, 2]: 7.02

Structure (SMILES): C[C@]1(O)C[C@@H](N2C(=O)CCc3cc(OCCN4CCC5(CC4)C(=O)Nc4ccc(OC(F)F)cc45)cnc32)C1 [Cmpd 325, 5-(difluoromethoxy)-1′-[2-({7-oxo-8-[(cis)-3-hydroxy-3-methylcyclobutyl]-5,6,7,8-tetrahydro-1,8-naphthyridin-3-yl}oxy)ethyl]-1,2-dihydrospiro[indole-3,4′-piperidin]-2-one]
- AC50 (APOL1 G2): 791 nM
- pEC50 [1, 2]: 6.71

Structure (SMILES): Cc1cc(OCCN2CCC3(CC2)C(=O)Nc2ccc(Cl)cc23)ccc1C(N)=O [Compound 49, 4-(2-{5-chloro-2-oxo-1,2-dihydrospiro[indole-3,4′-piperidin]-1′-yl}ethoxy)-2-methylbenzamide]
- AC50 (APOL1 G2): 875 nM
- pEC50 [1, 2]: 6.59

Structure (SMILES): CP(C)(=O)C1(c2ccc(OCCN3CCC4(CC3)C(=O)Nc3ccc(Cl)cc34)cc2)CC1 [Compound 343, 5-chloro-1′-(2-{4-[1-(dimethylphosphoryl)cyclopropyl]phenoxy}ethyl)-1,2-dihydrospiro[indole-3,4′-piperidin]-2-one]
- AC50 (APOL1 G2): 437 nM
- pEC50 [1, 2]: 6.37

Structure (SMILES): CN1C(=O)CCc2cc(OCCN3CCC4(CC3)C(=O)Nc3ccc(C#N)cc34)cnc21 [Compound 79, 1′-{2-[(8-methyl-7-oxo-5,6,7,8-tetrahydro-1,8-naphthyridin-3-yl)oxy]ethyl}-2-oxo-1,2-dihydrospiro[indole-3,4′-piperidine]-5-carbonitrile]
- AC50 (APOL1 G2): 687 nM
- pEC50 [1, 2]: 6.27

Structure (SMILES): CS(=O)(=O)N1CCCc2cc(OCCN3CCC4(CC3)C(=O)Nc3ccc(Cl)cc34)ccc21 [Compound 53, 5-chloro-1′-{2-[(1-methanesulfonyl-1,2,3,4-tetrahydroquinolin-6-yl)oxy]ethyl}-1,2-dihydrospiro[indole-3,4′-piperidin]-2-one]
- AC50 (APOL1 G2): 838 nM
- pEC50 [1, 2]: 6.66

Structure (SMILES): C[C@]1(O)C[C@@H](N2C(=O)Cc3cc(OCCN4CCC5(CC4)C(=O)Nc4ccc(C(F)F)cc45)cnc32)C1 [Compound 346, 5-(difluoromethyl)-1′-[2-({2-oxo-1-[(cis)-3-hydroxy-3-methylcyclobutyl]-1H,2H,3H-pyrrolo[2,3-b]pyridin-5-yl]oxy)ethyl]-1,2-dihydrospiro[indole-3,4′-piperidin]-2-one]
- AC50 (APOL1 G2): 557 nM
- pEC50 [1, 2]: 7.08

Structure (SMILES): NC(=O)c1ccc(OCCN2CCC3(CC2)C(=O)Nc2ccc(Cl)cc23)cc1F [Compound 46, 4-(2-{5-chloro-2-oxo-1,2-dihydrospiro[indole-3,4′-piperidin]-1′-yl}ethoxy)-2-fluorobenzamide]
- AC50 (APOL1 G2): 434 nM
- pEC50 [1, 2]: 6.60

Structure (SMILES): O=C1CCc2cc(OCCN3CCC4(CC3)C(=O)Nc3ccc(Cl)cc34)cnc2N1C1CC(CO)C1 (centres unmarked) [Compound 326, 5-chloro-1′-[2-({8-[3-(hydroxymethyl)cyclobutyl]-7-oxo-5,6,7,8-tetrahydro-1,8-naphthyridin-3-yl}oxy)ethyl]-1,2-dihydrospiro[indole-3,4′-piperidin]-2-one]
- AC50 (APOL1 G2): 680 nM
- pEC50 [1, 2]: 6.98
